In PubChem BioAssay AID220 (DTP/NCI, 2004) one finds T/C data, which are given here for twelve molecules.

The assay deals with CD8F1 mice, subcutaneous mammary adenocarcinoma, T/C%. Description: NCI In Vivo Anticancer Drug Screen. Data for tumor model Mammary Adenocarcinoma CD8F1 (subcutaneous) in CD8F1. To be noted: higher = larger tumour. Put shortly: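 Ratio of treated to vehicle-control outcome, based on either survival or tumor size, in mice bearing transplantable tumors given the test compound.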

Setting [1] is: endpoint: median tumor weight (est.), dose: 6.25 mg/kg/injection, schedule: Q07DX005 (ip), vehicle: saline.
The mark [2] stands for this setting: endpoint: median tumor weight (est.), dose: 12.5 mg/kg/injection, schedule: Q07DX005 (ip), vehicle: saline.
Where [3] appears, read: endpoint: median tumor weight (est.), dose: 25.0 mg/kg/injection, schedule: Q07DX005 (ip), vehicle: saline.
Setting [4] is: endpoint: median tumor weight change, dose: 250.0 mg/kg/injection, schedule: Q01DX001 (ip), vehicle: saline with Tween-80.

Where “and” joins values, the source holds several entries; their conditions need not be identical. Identical values can stand only once. Records with an inconclusive call do not appear.

In the case of `NC(=O)c1[nH]nc(C2OC(CO)C(O)C2O)c1O` (configuration not stated), the T/C reads like this: (endpoint: median tumor weight (est.), dose: 0.31 mg/kg/injection, schedule: Q07DX005 (ip), vehicle: saline) 123 % of control; (endpoint: median tumor weight (est.), dose: 0.62 mg/kg/injection, schedule: Q07DX005 (ip), vehicle: saline) 85 % of control; (endpoint: median tumor weight (est.), dose: 1.25 mg/kg/injection, schedule: Q07DX005 (ip), vehicle: saline) 77 % of control; (endpoint: median tumor weight (est.), dose: 2.5 mg/kg/injection, schedule: Q07DX005 (ip), vehicle: saline) 28 % of control; (endpoint: median tumor weight (est.), dose: 5.0 mg/kg/injection, schedule: Q07DX005 (ip), vehicle: saline) 53 % of control; (endpoint: median tumor weight (est.), dose: 10.0 mg/kg/injection, schedule: Q07DX005 (ip), vehicle: saline) 29 % of control.

For the molecule `Cc1cccc(-[n+]2noc(N)n2)c1`, the T/C is, setting by setting: (endpoint: median tumor weight change, dose: 62.0 mg/kg/injection, schedule: Q01DX001 (ip), vehicle: water) 80 % of control; (endpoint: median tumor weight change, dose: 125.0 mg/kg/injection, schedule: Q01DX001 (ip), vehicle: water) 51 % of control.

In the case of `CCCCCCCCCCCCCCCCP(=O)(OCCOCCCCCC)OCCOCCCCCC`, the T/C (endpoint: median tumor weight (est.), dose: 3.12 mg/kg/injection, schedule: Q07DX005 (ip), vehicle: saline) is 118 % of control; the T/C under setting [1] is 156 % of control; the T/C under setting [2] was 85 % of control; the T/C under setting [3] is 72 % of control; the T/C (endpoint: median tumor weight (est.), dose: 50.0 mg/kg/injection, schedule: Q07DX005 (ip), vehicle: saline) was 94 % of control; the T/C (endpoint: median tumor weight (est.), dose: 100.0 mg/kg/injection, schedule: Q07DX005 (ip), vehicle: saline) was 55 % of control.

In the case of `O=C1C=CC(=O)N1c1ccc(Cl)cc1`, the T/C is, setting by setting: (endpoint: median tumor weight (est.), dose: 5.0 mg/kg/injection, schedule: Q07DX003 (ip), vehicle: Klucel (hydroxypropylcellulose) (HPC)) 65 % of control; (endpoint: median tumor weight (est.), dose: 20.0 mg/kg/injection, schedule: Q07DX003 (ip), vehicle: Klucel (hydroxypropylcellulose) (HPC)) 109 % of control.

On to `O=CN(SSN(C=O)C1CCCCC1)C1CCCCC1`, for which the T/C is, setting by setting: (endpoint: median tumor weight (est.), dose: 25.0 mg/kg/injection, schedule: Q07DX005 (ip), vehicle: saline with Tween-80) 101 % of control; (endpoint: median tumor weight (est.), dose: 50.0 mg/kg/injection, schedule: Q07DX005 (ip), vehicle: saline with Tween-80) 123 % of control; (endpoint: median tumor weight (est.), dose: 200.0 mg/kg/injection, schedule: Q07DX005 (ip), vehicle: saline with Tween-80) 100 % of control.

For the molecule `Cc1ncc(CNC(=O)N(CCCl)N=O)c(N)n1`, the T/C reads like this: under setting [1], 18 % of control; under setting [2], 20 % of control; under setting [3], 14 % of control.

Take `COc1cccc2c1C(=O)c1c(O)c3c(c(O)c1C2=O)C[C@@](O)(C(C)=O)C[C@@H]3OC1CC(N(C)C)C(O)C(C)O1` (some centres not stated): the T/C is 197 % of control (endpoint: mean tumor weight, dose: 1.0 mg/kg/injection, schedule: Q07DX006 (ip), vehicle: water); 73 % of control (endpoint: mean tumor weight, dose: 2.0 mg/kg/injection, schedule: Q07DX006 (ip), vehicle: water); 30 % of control (endpoint: mean tumor weight, dose: 4.0 mg/kg/injection, schedule: Q07DX006 (ip), vehicle: water); 1 % of control (endpoint: mean tumor weight, dose: 8.0 mg/kg/injection, schedule: Q07DX006 (ip), vehicle: water); 108 % of control (endpoint: median tumor weight (est.), dose: 1.0 mg/kg/injection, schedule: Q07DX005 (ip), vehicle: water); 63 % of control (endpoint: median tumor weight (est.), dose: 2.0 mg/kg/injection, schedule: Q07DX005 (ip), vehicle: water). In addition, the T/C (endpoint: median tumor weight (est.), dose: 4.0 mg/kg/injection, schedule: Q07DX005 (ip), vehicle: water) was 45 % of control and the T/C (endpoint: median tumor weight (est.), dose: 8.0 mg/kg/injection, schedule: Q07DX005 (ip), vehicle: water) was 42 % of control.

As for `O=S(=O)(O)O.[NH-]C1CCCCC1[NH-].[Pt+2]` (configuration not stated), the T/C was 54 % of control (endpoint: mean tumor weight, dose: 0.63 mg/kg/injection, schedule: Q07DX006 (ip), vehicle: water); 44 % of control (endpoint: mean tumor weight, dose: 1.25 mg/kg/injection, schedule: Q07DX006 (ip), vehicle: water); 4 % of control (endpoint: mean tumor weight, dose: 2.5 mg/kg/injection, schedule: Q07DX006 (ip), vehicle: water); 1 % of control (endpoint: mean tumor weight, dose: 5.0 mg/kg/injection, schedule: Q07DX006 (ip), vehicle: water); 81 % of control (endpoint: median tumor weight (est.), dose: 0.63 mg/kg/injection, schedule: Q07DX005 (ip), vehicle: dextrose); 74 % of control (endpoint: median tumor weight (est.), dose: 0.63 mg/kg/injection, schedule: Q07DX005 (ip), vehicle: water). Also, the T/C (endpoint: median tumor weight (est.), dose: 1.25 mg/kg/injection, schedule: Q07DX005 (ip), vehicle: dextrose) was 41 % of control; the T/C (endpoint: median tumor weight (est.), dose: 1.25 mg/kg/injection, schedule: Q07DX005 (ip), vehicle: water) was 55 % of control; the T/C (endpoint: median tumor weight (est.), dose: 2.5 mg/kg/injection, schedule: Q07DX005 (ip), vehicle: dextrose) is 83 % of control; the T/C (endpoint: median tumor weight (est.), dose: 2.5 mg/kg/injection, schedule: Q07DX005 (ip), vehicle: water) is 41 % of control; the T/C (endpoint: median tumor weight (est.), dose: 5.0 mg/kg/injection, schedule: Q07DX005 (ip), vehicle: dextrose) was 33 % of control; the T/C (endpoint: median tumor weight (est.), dose: 5.0 mg/kg/injection, schedule: Q07DX005 (ip), vehicle: water) is 3 % of control.

As for `COC(=O)C[C@](O)(CCC(C)(C)O)C(=O)O[C@@H]1C(OC)=C[C@]23CCCN2CCc2cc4c(cc2[C@H]13)OCO4`, the T/C is, setting by setting: (endpoint: median tumor weight change, dose: 1.25 mg/kg/injection, schedule: Q01DX001 (ip), vehicle: saline) 80 % of control and 96 % of control; (endpoint: median tumor weight change, dose: 2.5 mg/kg/injection, schedule: Q01DX001 (ip), vehicle: saline) 89 % of control and 94 % of control; (endpoint: median tumor weight change, dose: 10.0 mg/kg/injection, schedule: Q01DX001 (ip), vehicle: saline) 68 % of control.

Take `OC(C1CO1)C(O)C1CO1` (configuration not stated): the T/C is 49 % of control (endpoint: median tumor weight (est.), dose: 0.5 mg/kg/injection, schedule: Q07DX005 (ip), vehicle: saline); 28 % of control (endpoint: median tumor weight (est.), dose: 1.0 mg/kg/injection, schedule: Q07DX005 (ip), vehicle: saline); 37 % of control (endpoint: median tumor weight (est.), dose: 2.0 mg/kg/injection, schedule: Q07DX005 (ip), vehicle: saline); 13 % of control (endpoint: median tumor weight (est.), dose: 4.0 mg/kg/injection, schedule: Q07DX005 (ip), vehicle: saline); 5 % of control (endpoint: median tumor weight (est.), dose: 8.0 mg/kg/injection, schedule: Q07DX005 (ip), vehicle: saline).

As to `CCNC(C)(C)C(SSS)c1ccco1` (configuration not stated), the T/C is, setting by setting: (endpoint: median tumor weight change, dose: 31.25 mg/kg/injection, schedule: Q01DX001 (ip), vehicle: saline with Tween-80) 97 % of control; (endpoint: median tumor weight change, dose: 62.5 mg/kg/injection, schedule: Q01DX001 (ip), vehicle: saline with Tween-80) 87 % of control; (endpoint: median tumor weight change, dose: 125.0 mg/kg/injection, schedule: Q01DX001 (ip), vehicle: saline with Tween-80) 65 % of control; under setting [4], 59 % of control.

Regarding `CC(=O)Nc1cscc1NC(C)=O`, the T/C is 73 % of control and 85 % of control under setting [4]; 71 % of control and 73 % of control (endpoint: median tumor weight change, dose: 500.0 mg/kg/injection, schedule: Q01DX001 (ip), vehicle: saline with Tween-80); 74 % of control and 91 % of control (endpoint: median tumor weight change, dose: 1000.0 mg/kg/injection, schedule: Q01DX001 (ip), vehicle: saline with Tween-80).
